In the kinase profiling compilation of Christmann-Franck et al. (2016):

Experiments:
Assay in all cases: KINOMEscan competition binding
ACVR1 (human) = ACVR1 (human) (UniProt Q04771)
ACVR1B (human) = ACVR1B (human) (UniProt P36896)
AKT3 (human) = AKT3 (human) (UniProt Q9Y243)
BLK (human) = BLK (human) (UniProt P51451)
BTK (human) = BTK (human) (UniProt Q06187)
CSF1R (human) = CSF1R (human) (UniProt P07333)
CSNK1D (human) = CSNK1D (human) (UniProt P48730)
CSNK1G1 (human) = CSNK1G1 (human) (UniProt Q9HCP0)
CSNK1G3 (human) = CSNK1G3 (human) (UniProt Q9Y6M4)
DAPK1 (human) = DAPK1 (human) (UniProt P53355)
DAPK2 (human) = DAPK2 (human) (UniProt Q9UIK4)
[1] = test system: EGFR (human), P00533 [A750P; 747-749 del]
[2] = test system: EIF2AK4 KD2 (human), Q9P2K8 [S808G]
FGR (human) = FGR (human) (UniProt P09769)
[3] = test system: FLT3 (human), P36888 [D835Y]
[4] = test system: FLT3 (human), P36888 [ITD]
FRK (human) = FRK (human) (UniProt P42685)
HCK (human) = HCK (human) (UniProt P08631)
MAP2K1 (human) = MAP2K1 (human) (UniProt Q02750)
MAP3K10 (human) = MAP3K10 (human) (UniProt Q02779)
MAPK4 (human) = MAPK4 (human) (UniProt P31152)
MKNK1 (human) = MKNK1 (human) (UniProt Q9BUB5)
MYLK2 (human) = MYLK2 (human) (UniProt Q9H1R3)
MYLK4 (human) = MYLK4 (human) (UniProt Q86YV6)
[5] = test system: PIK3CA (human), P42336 [Q546K]
PIK3CG (human) = PIK3CG (human) (UniProt P48736)
PIM1 (human) = PIM1 (human) (UniProt P11309)
PIP4K2C (human) = PIP4K2C (human) (UniProt Q8TBX8)
PLK4 (human) = PLK4 (human) (UniProt O00444)
PRKACA (human) = PRKACA (human) (UniProt P17612)
PRKCH (human) = PRKCH (human) (UniProt P24723)
PRKD2 (human) = PRKD2 (human) (UniProt Q9BZL6)
PRKG1 (human) = PRKG1 (human) (UniProt Q13976)
RET (human) = RET (human) (UniProt P07949)
RIPK1 (human) = RIPK1 (human) (UniProt Q13546)
RPS6KA2 KD2 (human) = RPS6KA2 KD2 (human) (UniProt Q15349)
STK24 (human) = STK24 (human) (UniProt Q9Y6E0)
TAOK2 (human) = TAOK2 (human) (UniProt Q9UL54)
TAOK3 (human) = TAOK3 (human) (UniProt Q9H2K8)
TEK (human) = TEK (human) (UniProt Q02763)
WEE1 (human) = WEE1 (human) (UniProt P30291)
ZAP70 (human) = ZAP70 (human) (UniProt P43403)

Chain of CSF1R (human) (P07333 whole entry, looked up): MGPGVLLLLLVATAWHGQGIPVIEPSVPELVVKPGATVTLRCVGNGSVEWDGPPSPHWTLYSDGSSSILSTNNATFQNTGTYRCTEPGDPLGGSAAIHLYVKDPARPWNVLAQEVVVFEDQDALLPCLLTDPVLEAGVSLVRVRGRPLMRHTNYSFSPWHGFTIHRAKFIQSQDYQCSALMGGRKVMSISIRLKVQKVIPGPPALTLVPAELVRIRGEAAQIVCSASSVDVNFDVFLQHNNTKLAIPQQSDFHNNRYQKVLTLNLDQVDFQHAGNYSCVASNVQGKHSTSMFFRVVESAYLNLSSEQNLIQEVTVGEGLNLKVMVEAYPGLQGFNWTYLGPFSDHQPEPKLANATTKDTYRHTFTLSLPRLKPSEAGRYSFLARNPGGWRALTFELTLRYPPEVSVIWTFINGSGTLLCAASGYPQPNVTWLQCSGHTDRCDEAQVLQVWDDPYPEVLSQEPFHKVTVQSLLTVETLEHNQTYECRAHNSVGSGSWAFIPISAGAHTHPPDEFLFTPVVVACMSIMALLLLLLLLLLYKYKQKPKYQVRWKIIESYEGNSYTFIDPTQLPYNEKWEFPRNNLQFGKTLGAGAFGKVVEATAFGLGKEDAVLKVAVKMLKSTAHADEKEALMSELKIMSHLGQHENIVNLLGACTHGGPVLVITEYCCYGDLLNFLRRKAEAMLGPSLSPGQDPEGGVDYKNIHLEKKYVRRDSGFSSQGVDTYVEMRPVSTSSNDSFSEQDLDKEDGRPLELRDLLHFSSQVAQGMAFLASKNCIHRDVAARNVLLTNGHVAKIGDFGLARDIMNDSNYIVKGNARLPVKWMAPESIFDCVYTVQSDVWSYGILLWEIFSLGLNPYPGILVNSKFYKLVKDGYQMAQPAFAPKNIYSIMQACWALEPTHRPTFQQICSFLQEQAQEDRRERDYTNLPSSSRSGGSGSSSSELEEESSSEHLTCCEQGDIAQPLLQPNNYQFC
Chain of BTK (human) (Q06187 whole entry, looked up): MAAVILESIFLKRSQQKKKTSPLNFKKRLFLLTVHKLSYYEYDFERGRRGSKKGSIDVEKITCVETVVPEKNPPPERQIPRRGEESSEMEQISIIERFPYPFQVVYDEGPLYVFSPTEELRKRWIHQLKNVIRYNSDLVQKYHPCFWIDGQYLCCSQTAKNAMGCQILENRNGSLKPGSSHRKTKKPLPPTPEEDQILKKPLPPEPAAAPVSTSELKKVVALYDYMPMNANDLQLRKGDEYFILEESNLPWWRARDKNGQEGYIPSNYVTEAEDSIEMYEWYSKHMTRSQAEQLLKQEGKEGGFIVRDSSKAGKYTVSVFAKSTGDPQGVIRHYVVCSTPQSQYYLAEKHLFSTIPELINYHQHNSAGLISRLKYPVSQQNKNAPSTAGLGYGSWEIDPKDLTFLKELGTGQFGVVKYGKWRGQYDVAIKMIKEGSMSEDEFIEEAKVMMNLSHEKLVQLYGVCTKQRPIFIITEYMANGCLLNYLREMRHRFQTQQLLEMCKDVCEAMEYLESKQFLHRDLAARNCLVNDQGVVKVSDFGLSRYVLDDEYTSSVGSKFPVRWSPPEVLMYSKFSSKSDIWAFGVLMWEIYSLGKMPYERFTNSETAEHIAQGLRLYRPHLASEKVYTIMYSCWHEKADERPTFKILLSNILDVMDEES
Chain of MAP2K1 (human) (Q02750 whole entry, looked up): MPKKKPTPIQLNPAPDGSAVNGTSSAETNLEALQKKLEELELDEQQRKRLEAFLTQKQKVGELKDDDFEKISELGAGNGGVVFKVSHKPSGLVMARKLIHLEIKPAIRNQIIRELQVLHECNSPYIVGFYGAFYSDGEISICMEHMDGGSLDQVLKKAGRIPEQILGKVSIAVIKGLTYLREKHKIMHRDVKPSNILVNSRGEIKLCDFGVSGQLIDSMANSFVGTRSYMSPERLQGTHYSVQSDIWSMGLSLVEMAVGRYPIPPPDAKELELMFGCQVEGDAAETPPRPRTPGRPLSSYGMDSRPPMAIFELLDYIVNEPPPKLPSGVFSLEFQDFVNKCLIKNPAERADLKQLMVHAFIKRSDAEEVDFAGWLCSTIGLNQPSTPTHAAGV
Chain of RIPK1 (human) (Q13546 whole entry, looked up): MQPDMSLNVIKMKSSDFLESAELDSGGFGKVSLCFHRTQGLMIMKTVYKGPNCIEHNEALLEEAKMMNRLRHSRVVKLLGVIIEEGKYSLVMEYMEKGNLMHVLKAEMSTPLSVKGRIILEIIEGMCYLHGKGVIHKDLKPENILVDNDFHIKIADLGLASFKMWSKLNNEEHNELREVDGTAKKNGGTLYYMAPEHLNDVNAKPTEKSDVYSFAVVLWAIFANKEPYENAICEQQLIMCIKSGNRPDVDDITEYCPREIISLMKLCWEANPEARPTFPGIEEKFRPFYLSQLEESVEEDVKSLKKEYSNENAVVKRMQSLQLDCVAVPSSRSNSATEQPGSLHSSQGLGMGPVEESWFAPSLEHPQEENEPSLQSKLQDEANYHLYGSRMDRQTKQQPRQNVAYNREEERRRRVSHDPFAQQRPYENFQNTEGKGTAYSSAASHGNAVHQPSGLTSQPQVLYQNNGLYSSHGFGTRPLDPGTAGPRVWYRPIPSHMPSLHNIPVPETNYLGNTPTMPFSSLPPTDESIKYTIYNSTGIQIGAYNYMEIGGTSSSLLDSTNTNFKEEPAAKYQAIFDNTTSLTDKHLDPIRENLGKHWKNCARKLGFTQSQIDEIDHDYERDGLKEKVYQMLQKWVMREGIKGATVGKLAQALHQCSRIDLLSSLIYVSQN
Chain of PRKCH (human) (P24723 whole entry, looked up): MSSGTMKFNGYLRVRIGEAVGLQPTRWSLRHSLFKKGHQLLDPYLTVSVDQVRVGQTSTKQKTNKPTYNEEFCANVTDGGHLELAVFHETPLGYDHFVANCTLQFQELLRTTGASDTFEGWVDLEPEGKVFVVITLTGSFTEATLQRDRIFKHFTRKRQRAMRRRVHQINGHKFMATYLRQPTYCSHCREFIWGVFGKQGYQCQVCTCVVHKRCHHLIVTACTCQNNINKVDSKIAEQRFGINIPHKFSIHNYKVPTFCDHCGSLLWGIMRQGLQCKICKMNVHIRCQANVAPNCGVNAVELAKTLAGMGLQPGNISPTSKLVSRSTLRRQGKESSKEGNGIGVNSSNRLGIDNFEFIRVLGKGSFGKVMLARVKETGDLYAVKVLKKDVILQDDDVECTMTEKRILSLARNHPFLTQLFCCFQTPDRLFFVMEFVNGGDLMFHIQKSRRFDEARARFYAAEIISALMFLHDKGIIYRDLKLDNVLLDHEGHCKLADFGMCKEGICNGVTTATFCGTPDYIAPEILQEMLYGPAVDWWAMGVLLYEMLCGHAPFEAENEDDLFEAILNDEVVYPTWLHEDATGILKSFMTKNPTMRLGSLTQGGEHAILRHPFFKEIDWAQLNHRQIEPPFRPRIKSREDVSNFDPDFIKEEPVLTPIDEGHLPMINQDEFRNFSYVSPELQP
Chain of MYLK2 (human) (Q9H1R3 whole entry, looked up): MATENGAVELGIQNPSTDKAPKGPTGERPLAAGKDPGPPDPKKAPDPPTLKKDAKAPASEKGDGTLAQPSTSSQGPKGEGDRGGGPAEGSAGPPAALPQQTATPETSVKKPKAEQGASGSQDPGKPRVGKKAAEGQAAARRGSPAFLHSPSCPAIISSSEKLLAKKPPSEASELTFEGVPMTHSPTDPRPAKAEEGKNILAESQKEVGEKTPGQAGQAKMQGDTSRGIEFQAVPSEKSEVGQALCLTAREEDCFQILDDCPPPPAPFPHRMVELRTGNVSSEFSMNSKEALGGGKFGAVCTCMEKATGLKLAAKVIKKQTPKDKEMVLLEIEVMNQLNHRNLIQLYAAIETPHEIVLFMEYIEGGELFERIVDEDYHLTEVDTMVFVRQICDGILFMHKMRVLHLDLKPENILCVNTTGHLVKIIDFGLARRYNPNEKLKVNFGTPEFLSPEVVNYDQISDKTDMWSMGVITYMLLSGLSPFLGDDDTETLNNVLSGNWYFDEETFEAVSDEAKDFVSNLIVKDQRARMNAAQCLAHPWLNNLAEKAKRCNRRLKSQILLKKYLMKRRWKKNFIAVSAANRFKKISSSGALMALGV
Chain of BLK (human) (P51451 whole entry, looked up): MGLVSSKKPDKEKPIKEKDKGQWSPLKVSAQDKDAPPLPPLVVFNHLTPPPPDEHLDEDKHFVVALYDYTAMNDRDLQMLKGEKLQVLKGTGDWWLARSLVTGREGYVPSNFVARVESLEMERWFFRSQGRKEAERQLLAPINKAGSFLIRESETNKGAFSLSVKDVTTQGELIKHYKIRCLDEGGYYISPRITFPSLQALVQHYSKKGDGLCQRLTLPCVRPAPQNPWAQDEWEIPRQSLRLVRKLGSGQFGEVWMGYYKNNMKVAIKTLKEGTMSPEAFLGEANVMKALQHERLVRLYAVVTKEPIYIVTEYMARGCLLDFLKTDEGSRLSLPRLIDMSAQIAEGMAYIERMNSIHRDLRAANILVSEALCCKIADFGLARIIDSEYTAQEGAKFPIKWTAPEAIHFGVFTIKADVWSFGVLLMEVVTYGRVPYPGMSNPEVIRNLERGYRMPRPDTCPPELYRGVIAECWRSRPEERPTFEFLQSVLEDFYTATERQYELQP
Chain of MYLK4 (human) (Q86YV6 whole entry, looked up): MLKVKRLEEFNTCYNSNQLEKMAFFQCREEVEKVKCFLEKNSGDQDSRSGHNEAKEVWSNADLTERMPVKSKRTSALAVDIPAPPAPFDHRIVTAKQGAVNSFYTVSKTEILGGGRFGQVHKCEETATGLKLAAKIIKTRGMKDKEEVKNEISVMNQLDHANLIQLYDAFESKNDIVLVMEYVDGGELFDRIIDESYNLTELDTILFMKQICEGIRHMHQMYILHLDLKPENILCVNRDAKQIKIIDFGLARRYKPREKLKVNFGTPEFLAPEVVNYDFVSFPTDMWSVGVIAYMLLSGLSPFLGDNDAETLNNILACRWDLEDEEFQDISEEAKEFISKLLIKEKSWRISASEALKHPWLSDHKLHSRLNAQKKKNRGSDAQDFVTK

`Cc1ccc(NC(=O)c2ccc(NC(=O)/C=C/CN(C)C)cc2)cc1Nc1nccc(-c2cccnc2)n1` showed a kinase still bound, per cent of control (ACVR1 (human); compound 10.0 µM) of 100%, a kinase still bound, per cent of control (ACVR1B (human); compound 10.0 µM) of 70% and a kinase still bound, per cent of control (AKT3 (human); compound 10.0 µM) of 100%. For the same molecule, the kinase still bound, per cent of control (BLK (human); compound 10.0 µM) was 60%, the kinase still bound, per cent of control (BTK (human); compound 10.0 µM) was 76% and the kinase still bound, per cent of control (CSF1R (human); compound 10.0 µM) was 9.2%. It also gave a kinase still bound, per cent of control (CSNK1D (human); compound 10.0 µM) of 54%, a kinase still bound, per cent of control (CSNK1G1 (human); compound 10.0 µM) of 85% and a kinase still bound, per cent of control (CSNK1G3 (human); compound 10.0 µM) of 71%. The kinase still bound, per cent of control (DAPK1 (human); compound 10.0 µM) was 72%, the kinase still bound, per cent of control (DAPK2 (human); compound 10.0 µM) was 82% and the kinase still bound, per cent of control ([1]; compound 10.0 µM) was 59%. For the same molecule, the kinase still bound, per cent of control ([2]; compound 10.0 µM) was 100%, the kinase still bound, per cent of control (FGR (human); compound 10.0 µM) was 80% and the kinase still bound, per cent of control ([3]; compound 10.0 µM) was 33%. The kinase still bound, per cent of control ([4]; compound 10.0 µM) was 46%, the kinase still bound, per cent of control (FRK (human); compound 10.0 µM) was 86% and the kinase still bound, per cent of control (HCK (human); compound 10.0 µM) was 89%. It also gave a kinase still bound, per cent of control (MAP2K1 (human); compound 10.0 µM) of 95%, a kinase still bound, per cent of control (MAP3K10 (human); compound 10.0 µM) of 100% and a kinase still bound, per cent of control (MAPK4 (human); compound 10.0 µM) of 100%. It also gave a kinase still bound, per cent of control (MKNK1 (human); compound 10.0 µM) of 88%, a kinase still bound, per cent of control (MYLK2 (human); compound 10.0 µM) of 68% and a kinase still bound, per cent of control (MYLK4 (human); compound 10.0 µM) of 55%. For the same molecule, the kinase still bound, per cent of control ([5]; compound 10.0 µM) was 94%, the kinase still bound, per cent of control (PIK3CG (human); compound 10.0 µM) was 68% and the kinase still bound, per cent of control (PIM1 (human); compound 10.0 µM) was 69%. The kinase still bound, per cent of control (PIP4K2C (human); compound 10.0 µM) was 2%, the kinase still bound, per cent of control (PLK4 (human); compound 10.0 µM) was 41% and the kinase still bound, per cent of control (PRKACA (human); compound 10.0 µM) was 100%. The kinase still bound, per cent of control (PRKCH (human); compound 10.0 µM) was 87%, the kinase still bound, per cent of control (PRKD2 (human); compound 10.0 µM) was 100% and the kinase still bound, per cent of control (PRKG1 (human); compound 10.0 µM) was 97%. For the same molecule, the kinase still bound, per cent of control (RET (human); compound 10.0 µM) was 99%, the kinase still bound, per cent of control (RIPK1 (human); compound 10.0 µM) was 56% and the kinase still bound, per cent of control (RPS6KA2 KD2 (human); compound 10.0 µM) was 86%. It also gave a kinase still bound, per cent of control (STK24 (human); compound 10.0 µM) of 86%, a kinase still bound, per cent of control (TAOK2 (human); compound 10.0 µM) of 61% and a kinase still bound, per cent of control (TAOK3 (human); compound 10.0 µM) of 19%. For the same molecule, the kinase still bound, per cent of control (TEK (human); compound 10.0 µM) was 93%, the kinase still bound, per cent of control (WEE1 (human); compound 10.0 µM) was 100% and the kinase still bound, per cent of control (ZAP70 (human); compound 10.0 µM) was 56%.

Work on `CN(C)C/C=C/C(=O)Nc1cccc(C(=O)Nc2ccc(Nc3nccc(/C(C#N)=C4\Nc5ccccc5S4)n3)cc2)c1` yielded a kinase still bound, per cent of control (ACVR1 (human); compound 1.0 µM) of 100%, a kinase still bound, per cent of control (ACVR1B (human); compound 1.0 µM) of 96% and a kinase still bound, per cent of control (AKT3 (human); compound 1.0 µM) of 100%. The kinase still bound, per cent of control (BLK (human); compound 1.0 µM) was 100%, the kinase still bound, per cent of control (BTK (human); compound 1.0 µM) was 76% and the kinase still bound, per cent of control (CSF1R (human); compound 1.0 µM) was 82%. For the same molecule, the kinase still bound, per cent of control (CSNK1D (human); compound 1.0 µM) was 26%, the kinase still bound, per cent of control (CSNK1G1 (human); compound 1.0 µM) was 92% and the kinase still bound, per cent of control (CSNK1G3 (human); compound 1.0 µM) was 37%. For the same molecule, the kinase still bound, per cent of control (DAPK1 (human); compound 1.0 µM) was 100%, the kinase still bound, per cent of control (DAPK2 (human); compound 1.0 µM) was 100% and the kinase still bound, per cent of control ([1]; compound 1.0 µM) was 94%. The kinase still bound, per cent of control ([2]; compound 1.0 µM) was 55%, the kinase still bound, per cent of control (FGR (human); compound 1.0 µM) was 100% and the kinase still bound, per cent of control ([3]; compound 1.0 µM) was 73%. The kinase still bound, per cent of control ([4]; compound 1.0 µM) was 57%, the kinase still bound, per cent of control (FRK (human); compound 1.0 µM) was 100% and the kinase still bound, per cent of control (HCK (human); compound 1.0 µM) was 100%. The kinase still bound, per cent of control (MAP2K1 (human); compound 1.0 µM) was 100%, the kinase still bound, per cent of control (MAP3K10 (human); compound 1.0 µM) was 68% and the kinase still bound, per cent of control (MAPK4 (human); compound 1.0 µM) was 100%. It also gave a kinase still bound, per cent of control (MKNK1 (human); compound 1.0 µM) of 100%, a kinase still bound, per cent of control (MYLK2 (human); compound 1.0 µM) of 100% and a kinase still bound, per cent of control (MYLK4 (human); compound 1.0 µM) of 20%. For the same molecule, the kinase still bound, per cent of control ([5]; compound 1.0 µM) was 100%, the kinase still bound, per cent of control (PIK3CG (human); compound 1.0 µM) was 51% and the kinase still bound, per cent of control (PIM1 (human); compound 1.0 µM) was 100%. The kinase still bound, per cent of control (PIP4K2C (human); compound 1.0 µM) was 35%, the kinase still bound, per cent of control (PLK4 (human); compound 1.0 µM) was 97% and the kinase still bound, per cent of control (PRKACA (human); compound 1.0 µM) was 88%. It also gave a kinase still bound, per cent of control (PRKCH (human); compound 1.0 µM) of 100%, a kinase still bound, per cent of control (PRKD2 (human); compound 1.0 µM) of 100% and a kinase still bound, per cent of control (PRKG1 (human); compound 1.0 µM) of 100%. The kinase still bound, per cent of control (RET (human); compound 1.0 µM) was 91%, the kinase still bound, per cent of control (RIPK1 (human); compound 1.0 µM) was 85% and the kinase still bound, per cent of control (RPS6KA2 KD2 (human); compound 1.0 µM) was 100%. The kinase still bound, per cent of control (STK24 (human); compound 1.0 µM) was 100%, the kinase still bound, per cent of control (TAOK2 (human); compound 1.0 µM) was 100% and the kinase still bound, per cent of control (TAOK3 (human); compound 1.0 µM) was 100%. For the same molecule, the kinase still bound, per cent of control (TEK (human); compound 1.0 µM) was 100%, the kinase still bound, per cent of control (WEE1 (human); compound 1.0 µM) was 100% and the kinase still bound, per cent of control (ZAP70 (human); compound 1.0 µM) was 81%.
